Assays:
ACHN = test: Growth inhibition of human ACHN cells after 48 hrs by SRB assay; assay type: functional
SF-539 = test: Growth inhibition of human SF539 cells after 48 hrs by SRB assay; assay type: functional; settings: SF-539, 48 h
[1] = read-out: LC50 (the source's name)
[2] = read-out: pLC50 (the source's name) (converted)

Compound: C=C1[C@@H](OC(C)=O)CC[C@@]2(C)C[C@H](OC(C)=O)C3=C(C)C[C@H](OC(=O)C(C)CC)[C@@H]([C@@H](OC(C)=O)[C@H]12)C3(C)C (some centres undefined)
- GI50 (ACHN; read-out: GI50): 28 µM
- CC50 (ACHN; [1]): > 100 µM
- TGI (ACHN; read-out: TGI): > 100 µM
- GI50 (ACHN; read-out: pGI50 (converted)): 28.2 µM
- CC50 (ACHN; [2]): 100 µM
- TGI (ACHN; read-out: pTGI (converted)): 100 µM
- GI50 (SF-539; read-out: GI50): 45 µM
- CC50 (SF-539; [1]): > 100 µM
- TGI (SF-539; read-out: TGI): > 100 µM
- GI50 (SF-539; read-out: pGI50 (converted)): 44.7 µM
- CC50 (SF-539; [2]): 100 µM
- TGI (SF-539; read-out: pTGI (converted)): 100 µM

Compound: C=C1[C@@H](OC(C)=O)CC[C@]2(C)[C@@H]1C[C@@H]1C[C@H](OC(C)=O)C(C)=C([C@@H](O)[C@@H]2OC(=O)/C=C/c2ccccc2)C1(C)C
- GI50 (ACHN; read-out: GI50): 87 µM
- CC50 (ACHN; [1]): 100 µM
- TGI (ACHN; read-out: TGI): 100 µM
- GI50 (ACHN; read-out: pGI50 (converted)): 89.1 µM
- CC50 (ACHN; [2]): 100 µM
- TGI (ACHN; read-out: pTGI (converted)): 100 µM
- GI50 (SF-539; read-out: GI50): > 100 µM
- CC50 (SF-539; [1]): 100 µM
- TGI (SF-539; read-out: TGI): 100 µM
- GI50 (SF-539; read-out: pGI50 (converted)): > 100 µM
- CC50 (SF-539; [2]): 100 µM
- TGI (SF-539; read-out: pTGI (converted)): 100 µM

Source: ChEMBL document CHEMBL1146459, “Production of biologically active taxoids by a callus culture of Taxus cuspidata” (2004)
